This is an account of results in US20020111355A1, “Cyclic urea and cyclic amide derivatives” (American Home Products Corporation, priority 1999, published 2002).

The term melting point denotes the temperature of the solid-liquid transition. In general, IC50 refers to the concentration that gives 50% inhibition.

Data set [1] concerns rat uterine decidualization. Put plainly: Rat decidualization assay. As to conditions: average over dose-response curves; decidual response; s.c.
A further data set has as its system T47D cells. The data set is described as follows: T47D cell proliferation assay (BrdU incorporation). The data set is classed as cell-based. The following applies: Homo sapiens, decrease in trimegestone induced BrdU incorporation (0.03 nM trimegestone), individual studies. The procedure: 3. T47D Cell Proliferation Assay
The objective of this assay is the determination of progestational and antiprogestational potency by using a cell proliferation assay in T47D cells. A compound's effect on DNA synthesis in T47D cells is measured.
DMEM:F12 (1:1) (GIBCO, BRL) supplemented with 10% (v/v) fetal bovine serum (not heat-inactivated), 100 U/ml penicillin, […], and 2 mM GlutaMax (GIBCO, BRL).
Minimum Essential Medium (MEM) (#51200-038GIBCO, BRL) phenol red-free supplemented with 0.5% charcoal stripped fetal bovine serum, 100 U/ml penicillin, […] streptomycin, and 2 mM GlutaMax (GIBCO, BRL). […]
At the end of BrdU labeling, the medium is removed and BrdU incorporation is measured using a cell proliferation ELISA kit (#RPN 250, Amersham Life Science) according to manufacturer's instructions. […] Then 25 μl of 1 M sulfuric acid is added to each well to stop color reaction and optical density is read in a plate reader at 450 nm within 5 min.
Square root-transformed data are used for analysis of variance and nonlinear dose response curve fitting for both agonist and antagonist modes. […] EC50 or IC50 values are calculated from the retransformed values. […]
(In general: Dividing cells build labelled thymidine or BrdU into new DNA.)

Take `CC1(C)OC(=O)Nc2ncc(-c3cccc(Cl)c3)cc21` [Example 4, 6-(3-Chloro-phenyl)-4,4-dimethyl-1,4-dihydro-3-oxa-1,8-diaza-naphthalene-2-one]: the melting point lay in the range of 214 to 215 °C.

For the compound `C#C[C@]1(O)CC[C@H]2[C@@H]3CCC4=CC(=O)CC[C@@H]4[C@H]3CC[C@@]21CC` [Levonorgestrel], the “average EC50” value in data set [1] was found to be 0.10 mg/kg. s.c.

With `C#C[C@]1(O)CC[C@H]2[C@@H]3CCC4=CC(=O)CC[C@@H]4[C@H]3C(=C)C[C@@]21CC` [3-Ketodesogestrel], the “average EC50” value in data set [1] was 0.10 mg/kg. s.c.

As for `CC#C[C@]1(O)CC[C@H]2[C@@H]3CCC4=CC(=O)CCC4=C3[C@@H](c3ccc(N(C)C)cc3)C[C@@]21C` [RU486], it took 0.011 nM to reach half-maximal inhibition in the data set on T47D cells (IC50).
